Measurements: US20240190889A1, “NEW CYCLOPENTA-THIENO-DIAZEPINE DERIVATIVES AS GABA A GAMMA1 POSITIVE ALLOSTERIC MODULATORS” (Hoffmann-La Roche Inc., priority 2021, published 2024)
Read-outs that look alike come from different tables or passages of the source.

Columns and labels:
[1] = biological target: h-GABA-A α2β2γ1 receptor expressed in Xenopus laevis oocytes (Homo sapiens (Human), UniProt P47869+Q8N1C3); assay: Two-electrode voltage clamp electrophysiology in Xenopus oocytes expressing GABAA receptors; assay type: cell-based; conditions: for Efficacy (GABA)%: % modulation of GABA EC20 = 100*(Fold increase-1), compound at 30-fold Ki α2β2γ1; for Fold increase h-GABA-A α2β2γ1 oocyte @ 30-fold Ki: GABA EC20, test compound at approx. 30-fold its Ki α2β2γ1, at least 3 oocytes
[2] = biological target: human GABAA α2β2γ1 receptor (Homo sapiens (Human), UniProt P47869+Q8N1C3); assay: Radioligand binding assay, competition for [3H]RO7239181, γ1-containing GABAA subtypes
[3] = biological target: human GABAA α1β2γ1 receptor (Homo sapiens (Human), UniProt P14867+Q8N1C3); assay: as above
[4] = read-out: Ki h-GABAA α2β2γ1, membranes from HEK293F cells, [3H]RO7239181 20-30 nM, mean of two determinations

| SMILES | Efficacy (GABA)% [1] [%] | Fold increase h-GABA-A α2β2γ1 oocyte @ 30-fold Ki [1] | Ki [2] [nM] | Ki [2, 4] [nM] | Ki [3] [nM] |
| --- | --- | --- | --- | --- | --- |
| Cc1nnc2n1-c1sc3c(c1C(c1c(F)cccc1Cl)=NC2)C[C@@H](C#N)C3 [Example 1, (13R)-9-(2-chloro-6-fluoro-phenyl)-3-methyl-16-thia-2,4,5,8-tetrazatetracyclo [8.6.0.02,6.011,15]hexadeca-1(10),3,5,8,11(15)-pentaene-13-carbonitrile] | 54 | 1.54 | 25.4 | 25.4 | 47.9 |
| Cc1nnc2n1-c1sc3c(c1C(c1c(F)cccc1F)=N[C@H]2C)C[C@@H](C(F)F)C3 [Example 5, (7S,13R)-13-(difluoromethyl)-9-(2,6-difluorophenyl)-3,7-dimethyl-16-thia-2,4,5,8-tetrazatetracyclo [8.6.0.02,6.011,15]hexadeca-1(10),3,5,8,11(15)-pentaene] | 41 | 1.41 | 3.4 | 3.4 | 14.4 |
| Cc1nnc2n1-c1sc3c(c1C(c1c(F)cccc1F)=NC2)C[C@@H](C(F)F)C3 [Example 3, (13R)-13-(difluoromethyl)-9-(2,6-difluorophenyl)-3-methyl-16-thia-2,4,5,8-tetrazatetracyclo [8.6.0.02,6.011,15]hexadeca-1(10),3,5,8,11(15)-pentaene] | 54 | 1.54 | 2.9 | 2.9 | 16.8 |
| Cc1nnc2n1-c1sc3c(c1C(c1c(F)cccc1F)=N[C@H]2C)C[C@@H](C)C3 [Example 15, (7S,13R)-9-(2,6-difluorophenyl)-3,7,13-trimethyl-16-thia-2,4,5,8-tetrazatetracyclo [8.6.0.02,6.011,15]hexadeca-1(10),3,5,8,11(15)-pentaene] | 45 | 1.45 | 6.3 | 6.3 | – |
| C[C@@H]1N=C(c2c(F)cccc2F)c2c(sc3c2C[C@@H](C(F)F)C3)-n2nc(C(=O)N3CCS(=O)(=O)CC3)nc21 [Example 19, [(7S,13R)-13-(difluoromethyl)-9-(2,6-difluorophenyl)-7-methyl-16-thia-2,3,5,8-tetrazatetracyclo [8.6.0.02,6.011,15]hexadeca-1(10),3,5,8,11(15)-pentaen-4-yl]-(1,1-dioxo-1,4-thiazinan-4-yl)methanone] | 43 | 1.43 | 5.4 | 5.4 | – |
